Results as given in US20050054629A1, “Compounds and methods of treating cell proliferative diseases” (priority 2002, published 2005).
Like-named read-outs stand apart in the source and are kept apart here.

Key:
MCF-7 breast carcinoma = assay: Cytotoxicity assay (MTT), 6 days; assay type: cell-based; conditions: Homo sapiens, MCF7, 144 h, 6 days of treatment, read-out: Toxicity 6d (IC 50, μM) MCF7
Source text: (§1) Four human tumoral cell lines, namely HCT116 colon adenocarcinoma, H460 lung carcinoma, MCF-7 and MDA-MB-231 breast carcinoma cell lines, and three immortalized but non tumorigenic cell lines, namely NIH3T3 mouse fibroblasts and human breast-derived MCF10-A and MRC-5 were purchased at ATCC and cultured according to their recommendations. In order to determine the cytotoxicity associated with one compound, a microculture tetrazolium assay (MTT), as described by Carmichael et al (Cancer Res, 1996) with modifications, was used. Briefly, 5.10^3 or 2.10^4 cells were seeded per well in 24-well plates 24 hours before drug addition. Cells were treated with 0, 1, 10, 17.5, 25 and 50 μM of compound solubilized in DMSO, adjusting the total volume of DMSO (Dimethylsulfoxide) to 1%. Forty-eight hours or 6 days after treatment, the medium was replaced by PBS containing 0.5 mg/ml MTT (Sigma) and cells were incubated for 3 more hours at 37° C. before solubilization of formazan crystals in 100% DMSO. Absorbance was measured using a spectrophotometer at a wavelength of 550 nm. Cell surviving fraction and 50% inhibitory concentration were calculated. All assays were performed in triplicate.

MCF10-A = assay: Cytotoxicity assay (MTT), 6 days; assay type: cell-based; conditions: Homo sapiens, MCF-10A, 144 h, 6 days of treatment, read-out: Toxicity 6d (IC 50, μM) MCF10-A
Source text: as §1

H460 lung carcinoma = assay: Cytotoxicity assay (MTT), 6 days; assay type: cell-based; conditions: Homo sapiens, NCI-H460, 144 h, 6 days of treatment, read-out: Toxicity 6d (IC 50, μM) H460
Source text: as §1

MRC-5 = assay: Cytotoxicity assay (MTT), 6 days; assay type: cell-based; conditions: Homo sapiens, MRC5, 144 h, 6 days of treatment, read-out: Toxicity 6d (IC 50, μM) MRC-5
Source text: as §1

NIH3T3 mouse fibroblasts = assay: Cytotoxicity assay (MTT), 6 days; assay type: cell-based; conditions: NIH3T3, 144 h, 6 days of treatment, read-out: Toxicity 6d (IC 50, μM) NIH3T3
Source text: as §1

[1] = system: MDA-MB-231 breast carcinoma; assay: Cytotoxicity assay (MTT), 6 days; assay type: cell-based; conditions: Homo sapiens, MDA-MB-231, 144 h, 6 days of treatment, read-out: Toxicity 6d (IC 50, μM) MDA231
Source text: as §1

MDA231 = assay: Cytoskeleton analysis, actin staining (FITC-phalloidin); assay type: cell-based, human; conditions: 24 h treatment
Experimental: (§2) Since major rearrangements of cytoskeleton are observed in tumor cells and since the small GTPases are known to regulate these events, analysis of actin cytoskeleton was performed. Subconfluent cells seeded onto coverslips were treated with different concentration of compound (1, 10, 17.5, 25 and 50 μM) or vehicle for 24 h, before being fixed in 4% formaldehyde for 15 min., permeabilized in 0.2% Triton X100 for 5 minutes and incubated in PowerBlock (Biogenex) for 10 min. Actin filaments were stained with 0.5 μg/ml fluorescein isothiocyanate (FITC)-labelled phalloidin for 1 hour. Analysis was performed using an inverted fluorescent microscope.

[2] = system: HCT116 colon adenocarcinoma; assay: Cytotoxicity assay (MTT), 6 days; assay type: cell-based, human; conditions: 6 days of treatment, read-out: Toxicity 6d (IC 50, μM) HCT116
Source text: as §1

MDA-MB-231 cells [3] = assay: Matrigel invasion assay (Boyden chamber); assay type: cell-based, human; conditions: for Invasion: MDA-MB-231, Boyden chamber, matrigel
Experimental: Chemoinvasion assay was performed in Boyden chamber as described by Albini et al (Cancer Res, 1987) with some modifications. Polycarbonate membranes with 8 μm pores were coated with matrigel (125 μg/cm^2) at room temperature for 48 h. Two hours before experiments, the matrix was […] with serum-free medium containing 0.1% BSA.
(§3) One day after seeding, 10^6 MDA-MB-231 cells were treated overnight with different concentrations of compounds (1, 10, 17.5, 25 and 50 μM). Cells were collected with Versene (Invitrogen), counted with trypan blue exclusion, rinsed twice in serum-free medium containing 0.1% BSA and resuspended in serum-free medium containing 0.1% BSA plus the appropriate concentration of compound. 10^5 treated cells were placed in the upper chamber. Medium containing 10% of FBS plus the appropriate concentration of compound was placed in the lower chamber as a chemoattractant. The Boyden chamber was incubated 6 hours at 37° C. before the cells were fixed and stained with Diff-Quick (Dade-Berhing). Cells on the upper part of the filters were removed using a cotton swab. Cells on the underside of the filters were visualised and counted under light microscope.

cell architecture = assay: Cell architecture modification, phase contrast; assay type: cell-based; set-up: key: −: no effect of the compound was observed; +: an effect of the compound was observed
NIH3T3 cells = assay: Colony formation assay with constitutively activated Ras (RasV12) and Rac (RacV12); assay type: cell-based, mouse; set-up: key to Colony formation: −: no effect of the compound was observed; +: an effect of the compound was observed
Experimental: (§4) The impact of the compounds on Ras and Rac signaling pathways was analysed with two reporter systems described by Imler (Nature 1988) and Lin (Science, 1995) respectively on one hand, and by a colony formation assay in the presence of constitutively activated Ras (RasV12) and Rac (RacV12) on the other hand. For this latter experiment, fifty percent confluent NIH3T3 cells in a 10 cm diameter petri dish were transfected with 0.5 μg pSV2-RasV12 or 0.5 μg pEXV RacV12 plasmids plus 100 ng of pSV2-neomycin plasmid using Lipofectamine-Plus reagent (Invitrogen) according to the manufacturer's instructions. Forty-eight hours later, cells were trypsinised, splitted to ⅓, and incubated in the presence of complete medium supplemented with 400 μg/ml geneticin (Invitrogen) and different doses of compound (1, 10, 17.5, 25 and 50 μM) until emerging resistant clones appear (2-3 weeks). The medium was renewed every 3 days. Colonies with a minimum of 50 cells were counted after staining with Fuschin 2%.

Ras = assay: Ras-dependant signaling pathway analysis (reporter system); assay type: cell-based; set-up: key: −: no effect of the compound was observed; +: an effect of the compound was observed
Experimental: as §4

Rac = assay: Rac-dependant signaling pathway analysis (reporter system); assay type: cell-based; set-up: key: −: no effect of the compound was observed; +: an effect of the compound was observed
Experimental: as §4

MDA-MB-231 cells [4] = assay: Migration assay (Boyden chamber, non-coated filters); assay type: cell-based, human; conditions: MDA-MB-231, Boyden chamber
Experimental: as §3
The migration assay was performed the same way, using non-coated filters.

NIH3T3 = assay: Cytoskeleton analysis, actin staining (FITC-phalloidin); assay type: cell-based, mouse; conditions: for Cell architecture modification actin staining (R: ruffles; FC: focal complexes) NIH3T3: 24 h treatment
Experimental: as §2

SMILES | IC50 (MCF-7 breast carcinoma) [µM] | IC50 (MCF10-A) [µM] | IC50 (H460 lung carcinoma) [µM] | IC50 (MRC-5) [µM] | IC50 (NIH3T3 mouse fibroblasts) [µM] | IC50 [1] [µM] | Cell architecture modification actin staining MDA231 (MDA231) | IC50 [2] [µM] | IC50 ([2]; Homo sapiens, HCT-116, 144 h) [µM] | Invasion (MDA-MB-231 cells [3]) | Cell architecture modification phase contrast (cell architecture) | Colony formation (NIH3T3 cells) | Small GTPases activities Ras (Ras) | Small GTPases activities Rac (Rac) | Migration (MDA-MB-231 cells [4]) | general morphology of NIH3T3 cells, as detected by β-actin staining (NIH3T3) | Cell architecture modification actin staining (R: ruffles; FC: focal complexes) NIH3T3 (NIH3T3) | concentration giving significant inhibition of invasive properties of MDA-MB-231 cells (MDA-MB-231 cells [3]) [µM]
O=c1cc(COCc2ccccc2)occ1OCCCCCOc1ccc(Cl)c(Cl)c1 [EH7701, 2-(Benzyloxymethyl)-5-[5-(3,4-dichlorophenyloxy)pentyloxy]-4H-pyran-4-one] | 17.5 | > 50 | 6 | 20 | 40 | 22.5 | cell spreading | 7.5 | ≤ 15 | No effect | − |  |  |  |  |  |  | 
O=c1cc(CO)occ1OCCCCOc1ccc(Cl)c(Cl)c1 [EH17700, 5-[4-(3,4-Dichlorophenyloxy)butyloxy]-2-(hydroxymethyl)-4H-pyran-4-one] | 20 |  | 15 | > 50 |  | 15 to 20 |  |  | 30 |  | − | − | − | − | no effect |  |  | 
O=c1cc(CO)occ1OCCCCCOc1cccc(Cl)c1 [EH10600, 5-[5-(3-Chlorophenyloxy)pentyloxy]-2-(hydroxymethyl)-4H-pyran-4-one] | 40 |  | 25 |  |  | 10 |  |  | > 50 |  | + | − | − | − |  | affected | cell destructuration | 
O=c1cc(CO)occ1OCCCCCOc1ccc(Cl)c(Cl)c1 [EH5500, 5-[5-(3,4-Dichlorophenyloxy)pentyloxy]-2-(hydroxymethyl)-4H-pyran-4-one] | 35 |  | 15 |  |  | > 50 |  |  | 50 |  | + | − | − | − |  | affected | cell destructuration | 
CCCc1cc(Cl)c(Cl)cc1OCCCCCOc1coc(CO)cc1=O [EH30701, 5-[5-(4,5-Dichloro-2-propylphenyloxy)pentyloxy]-2-(hydroxymethyl)-4H-pyran-4-one] | 20 |  | 15 |  |  | 15 | cell spreading | 8 | ≤ 15 | Decrease | − |  |  |  |  |  |  | 17.5
CCCc1c(OCCCCCCOc2coc(CO)cc2=O)ccc(Cl)c1Cl [EH16701] | 15 | > 50 | 7 | > 50 | > 50 | 47.5 | cell spreading | 8.5 | ≤ 15 | No effect | − |  |  |  |  |  |  | 
CCCc1c(OCCCCCCCOc2coc(CO)cc2=O)ccc(Cl)c1Cl [EH17701, 5-[7-(3,4-Dichloro-2-propylphenyloxy)heptyloxy]-2-(hydroxymethyl)-4H-pyran-4-one] | 15 | > 50 | 5 to 10 | 17.5 |  | 35 | cell spreading |  |  |  | − |  |  |  |  |  |  | 17.5
